Results: ChEMBL document CHEMBL1143778, “Studies towards the identification of a new generation of atypical antipsychotic agents” (Bioorg Med Chem Lett, 2007)
pEC50, pIC50, pKi: −log10 of the molar value. Several values for one entry are separate records, joined by “and”; a condition that tells them apart may be missing. Equal entries are not always repeated.

Columns and labels:
[1] = target: T1, D(3) dopamine receptor (Homo sapiens, UniProt P35462); assay: Displacement of [125I]iodosulpiride from human recombinant dopamine D3 receptor expressed in CHO cells; format: cell-based
[2] = target: T2, 5-hydroxytryptamine receptor 2A (Homo sapiens, UniProt P28223); assay: Displacement of radioligand from human recombinant 5HT2A receptor
[3] = target: T3, 5-hydroxytryptamine receptor 6 (Homo sapiens, UniProt P50406); assay: Displacement of radioligand from human recombinant 5HT6 receptor
[4] = target: T4, D(2) dopamine receptor (Homo sapiens, UniProt P14416); assay: Displacement of [125I]iodosulpiride from human recombinant dopamine D2 receptor expressed in CHO cells; format: cell-based
[5] = target: T5, 5-hydroxytryptamine receptor 2C (Homo sapiens, UniProt P28335); assay: Displacement of radioligand from human recombinant 5HT2C receptor
T5 sequence (P28335 whole entry): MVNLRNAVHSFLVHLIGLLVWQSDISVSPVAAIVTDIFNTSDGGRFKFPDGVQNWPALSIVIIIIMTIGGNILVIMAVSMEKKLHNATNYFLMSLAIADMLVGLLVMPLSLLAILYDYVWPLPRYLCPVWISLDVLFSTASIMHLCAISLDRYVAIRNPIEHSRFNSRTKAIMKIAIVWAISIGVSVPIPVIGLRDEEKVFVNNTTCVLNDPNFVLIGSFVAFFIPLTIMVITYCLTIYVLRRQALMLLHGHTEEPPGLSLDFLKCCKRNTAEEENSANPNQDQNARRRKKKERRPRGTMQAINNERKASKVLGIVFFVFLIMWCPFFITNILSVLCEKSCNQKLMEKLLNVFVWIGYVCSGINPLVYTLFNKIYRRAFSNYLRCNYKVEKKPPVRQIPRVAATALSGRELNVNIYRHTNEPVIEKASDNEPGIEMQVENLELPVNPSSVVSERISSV

[6] = target: Cytochrome P450 2C9 (Homo sapiens, UniProt P11712); assay: Inhibition of CYP2C9; format: ADME
[7] = target: Cytochrome P450 2C19 (Homo sapiens, UniProt P33261); assay: Inhibition of CYP2C19; format: ADME
[8] = target: Cytochrome P450 2D6 (Homo sapiens, UniProt P10635); assay: Inhibition of CYP2D6; format: ADME
[9] = target: T6, Cytochrome P450 1A2 (Homo sapiens, UniProt P05177); assay: Inhibition of CYP1A2; format: ADME
T6 sequence (P05177 whole entry): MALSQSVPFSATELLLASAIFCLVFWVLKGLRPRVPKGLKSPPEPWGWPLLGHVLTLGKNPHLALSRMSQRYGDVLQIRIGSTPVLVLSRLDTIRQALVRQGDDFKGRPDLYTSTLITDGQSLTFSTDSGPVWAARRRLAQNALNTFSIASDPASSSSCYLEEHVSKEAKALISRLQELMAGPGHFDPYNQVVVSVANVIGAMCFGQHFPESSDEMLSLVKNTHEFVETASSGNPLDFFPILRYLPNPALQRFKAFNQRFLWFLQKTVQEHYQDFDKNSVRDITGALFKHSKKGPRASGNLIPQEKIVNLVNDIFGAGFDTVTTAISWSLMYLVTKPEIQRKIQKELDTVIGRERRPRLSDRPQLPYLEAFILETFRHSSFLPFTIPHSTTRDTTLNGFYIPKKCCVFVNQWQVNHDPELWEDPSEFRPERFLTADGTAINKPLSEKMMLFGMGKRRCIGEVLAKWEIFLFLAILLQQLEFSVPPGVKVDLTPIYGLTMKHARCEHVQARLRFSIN

[10] = target: Cytochrome P450 3A4 (Homo sapiens, UniProt P08684); assay: Inhibition of CYP3A4; format: ADME
[11] = target: T2, 5-hydroxytryptamine receptor 2A; assay: Agonist activity at human 5HT2A receptor by FLIPR assay; format: functional
[12] = system: Rattus norvegicus; assay: Reversal of amphetamine-induced hyperactivity in orally dosed rat; format: functional; conditions: po
[13] = target: T4, D(2) dopamine receptor; assay: Agonist activity at human dopamine D2 receptor by [35S]GTPgammaS binding assay; format: functional
[14] = target: T3, 5-hydroxytryptamine receptor 6; assay: Agonist activity at human 5HT6 receptor by cAMP assay; format: functional
[15] = system: Rattus norvegicus; assay: Toxicity assessed as induction of catalepsy in rat model of extra-pyramidal side effect up to 100 mg/kg, po; format: organism-based; set-up: dose 100 mg/kg, route oral; conditions: in vivo
[16] = target: T5, 5-hydroxytryptamine receptor 2C; assay: Agonist activity at human 5HT2C receptor by FLIPR assay; format: functional
[17] = target: T1, D(3) dopamine receptor; assay: Agonist activity at human dopamine D3 receptor by [35S]GTP-gamma-S binding assay; format: functional

T1 sequence (P35462 whole entry): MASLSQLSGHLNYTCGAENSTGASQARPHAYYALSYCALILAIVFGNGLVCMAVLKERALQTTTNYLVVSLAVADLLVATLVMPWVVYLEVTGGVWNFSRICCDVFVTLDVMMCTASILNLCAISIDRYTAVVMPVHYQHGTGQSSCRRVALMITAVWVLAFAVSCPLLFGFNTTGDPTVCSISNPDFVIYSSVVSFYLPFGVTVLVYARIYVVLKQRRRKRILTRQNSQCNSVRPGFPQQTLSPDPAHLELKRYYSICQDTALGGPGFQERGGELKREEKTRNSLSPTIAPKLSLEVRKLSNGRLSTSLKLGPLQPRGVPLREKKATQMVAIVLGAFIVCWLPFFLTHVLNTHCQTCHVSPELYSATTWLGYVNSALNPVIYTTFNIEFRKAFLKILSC
Cytochrome P450 2C9, sequence (P11712 whole entry): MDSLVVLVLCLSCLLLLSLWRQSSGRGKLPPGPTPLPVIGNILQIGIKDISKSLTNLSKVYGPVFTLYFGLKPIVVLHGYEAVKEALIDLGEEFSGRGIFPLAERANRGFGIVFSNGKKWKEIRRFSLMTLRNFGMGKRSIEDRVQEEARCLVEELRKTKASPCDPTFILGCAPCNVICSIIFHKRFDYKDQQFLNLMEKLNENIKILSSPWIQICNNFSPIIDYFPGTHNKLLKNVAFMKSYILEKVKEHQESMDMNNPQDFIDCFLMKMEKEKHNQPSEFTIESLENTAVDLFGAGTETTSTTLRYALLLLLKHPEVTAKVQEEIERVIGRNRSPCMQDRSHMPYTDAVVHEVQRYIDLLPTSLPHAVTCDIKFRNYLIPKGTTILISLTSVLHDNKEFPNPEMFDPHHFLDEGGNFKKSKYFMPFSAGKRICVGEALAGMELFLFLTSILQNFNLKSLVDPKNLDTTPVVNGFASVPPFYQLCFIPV
T3 sequence (P50406 whole entry): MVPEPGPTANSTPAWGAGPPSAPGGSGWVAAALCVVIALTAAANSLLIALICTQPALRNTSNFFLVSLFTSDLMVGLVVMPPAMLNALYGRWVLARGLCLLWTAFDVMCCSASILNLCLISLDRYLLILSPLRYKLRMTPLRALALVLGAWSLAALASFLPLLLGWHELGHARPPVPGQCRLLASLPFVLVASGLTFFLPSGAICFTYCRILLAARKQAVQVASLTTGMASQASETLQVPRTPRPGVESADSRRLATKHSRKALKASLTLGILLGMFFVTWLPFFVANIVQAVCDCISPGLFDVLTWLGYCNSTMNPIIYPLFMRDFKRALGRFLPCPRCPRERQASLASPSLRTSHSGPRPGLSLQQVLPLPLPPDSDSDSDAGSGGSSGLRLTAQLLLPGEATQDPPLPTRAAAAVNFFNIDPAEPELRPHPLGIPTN
Cytochrome P450 2D6, sequence (P10635 whole entry): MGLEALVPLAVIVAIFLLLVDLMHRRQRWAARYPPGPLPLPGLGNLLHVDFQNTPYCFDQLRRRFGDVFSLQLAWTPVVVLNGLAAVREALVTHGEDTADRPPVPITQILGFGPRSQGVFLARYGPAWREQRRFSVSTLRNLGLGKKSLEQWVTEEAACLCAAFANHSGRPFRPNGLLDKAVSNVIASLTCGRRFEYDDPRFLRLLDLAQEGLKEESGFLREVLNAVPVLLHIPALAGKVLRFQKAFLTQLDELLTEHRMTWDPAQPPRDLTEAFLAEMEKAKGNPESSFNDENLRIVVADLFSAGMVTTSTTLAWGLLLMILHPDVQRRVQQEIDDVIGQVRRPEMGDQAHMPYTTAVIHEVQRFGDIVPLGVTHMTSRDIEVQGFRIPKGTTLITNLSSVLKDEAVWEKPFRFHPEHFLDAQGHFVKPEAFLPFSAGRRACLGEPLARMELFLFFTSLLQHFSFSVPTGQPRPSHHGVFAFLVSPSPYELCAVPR
Cytochrome P450 2C19, sequence (P33261 whole entry): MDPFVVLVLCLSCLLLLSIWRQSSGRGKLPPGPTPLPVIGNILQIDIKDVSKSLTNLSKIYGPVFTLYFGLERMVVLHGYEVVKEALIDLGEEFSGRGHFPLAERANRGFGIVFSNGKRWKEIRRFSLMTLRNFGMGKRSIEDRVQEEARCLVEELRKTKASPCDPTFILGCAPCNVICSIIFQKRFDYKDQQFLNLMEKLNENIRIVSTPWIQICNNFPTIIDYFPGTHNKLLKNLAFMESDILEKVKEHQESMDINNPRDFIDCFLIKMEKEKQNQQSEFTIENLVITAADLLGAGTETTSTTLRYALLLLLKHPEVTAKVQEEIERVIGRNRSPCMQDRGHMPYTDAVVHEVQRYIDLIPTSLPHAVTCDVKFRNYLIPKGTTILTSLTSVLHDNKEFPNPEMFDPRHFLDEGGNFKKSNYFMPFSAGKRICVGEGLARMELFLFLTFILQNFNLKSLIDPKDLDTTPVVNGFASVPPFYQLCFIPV
Cytochrome P450 3A4, sequence (P08684 whole entry): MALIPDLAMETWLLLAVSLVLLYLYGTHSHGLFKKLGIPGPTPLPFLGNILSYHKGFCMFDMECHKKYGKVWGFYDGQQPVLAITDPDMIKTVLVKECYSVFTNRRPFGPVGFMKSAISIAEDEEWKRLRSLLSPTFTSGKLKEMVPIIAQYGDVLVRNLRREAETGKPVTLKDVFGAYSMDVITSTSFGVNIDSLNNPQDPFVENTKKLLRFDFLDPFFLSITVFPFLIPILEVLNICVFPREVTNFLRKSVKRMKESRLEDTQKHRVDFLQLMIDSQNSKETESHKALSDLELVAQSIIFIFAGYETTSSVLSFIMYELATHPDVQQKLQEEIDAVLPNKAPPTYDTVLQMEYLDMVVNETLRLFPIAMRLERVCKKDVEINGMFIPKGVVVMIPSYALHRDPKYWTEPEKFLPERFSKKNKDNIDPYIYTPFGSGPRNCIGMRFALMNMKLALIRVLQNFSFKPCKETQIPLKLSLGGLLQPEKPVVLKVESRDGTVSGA
T2 sequence (P28223 whole entry): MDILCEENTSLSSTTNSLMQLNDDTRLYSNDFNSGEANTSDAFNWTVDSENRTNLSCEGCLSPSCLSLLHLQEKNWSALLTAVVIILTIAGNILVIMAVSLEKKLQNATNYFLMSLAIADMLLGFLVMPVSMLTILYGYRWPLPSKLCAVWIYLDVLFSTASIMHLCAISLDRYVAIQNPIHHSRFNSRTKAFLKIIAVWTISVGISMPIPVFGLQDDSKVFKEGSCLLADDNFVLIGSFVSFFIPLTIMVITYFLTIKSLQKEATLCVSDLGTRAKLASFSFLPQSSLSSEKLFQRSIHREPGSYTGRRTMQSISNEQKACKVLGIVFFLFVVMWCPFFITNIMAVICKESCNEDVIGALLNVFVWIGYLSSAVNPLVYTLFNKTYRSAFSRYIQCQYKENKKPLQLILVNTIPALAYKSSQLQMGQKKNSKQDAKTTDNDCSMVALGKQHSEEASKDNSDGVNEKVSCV
T4 sequence (P14416 whole entry): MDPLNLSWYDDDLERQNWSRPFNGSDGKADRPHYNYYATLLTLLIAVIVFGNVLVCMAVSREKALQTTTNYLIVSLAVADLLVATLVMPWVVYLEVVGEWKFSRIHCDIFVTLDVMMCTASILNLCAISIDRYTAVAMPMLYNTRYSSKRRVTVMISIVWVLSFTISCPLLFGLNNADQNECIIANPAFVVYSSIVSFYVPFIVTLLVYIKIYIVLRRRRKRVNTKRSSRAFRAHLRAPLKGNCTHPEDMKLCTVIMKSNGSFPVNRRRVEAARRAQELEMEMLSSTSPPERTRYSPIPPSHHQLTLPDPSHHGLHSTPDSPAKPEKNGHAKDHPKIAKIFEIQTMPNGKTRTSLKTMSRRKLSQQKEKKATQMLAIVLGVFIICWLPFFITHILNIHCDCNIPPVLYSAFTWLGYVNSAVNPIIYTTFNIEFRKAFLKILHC

pKi [1] | pKi [2] | pKi [3] | pKi [4] | pKi [5] | Structure (SMILES) | other results
8.20 | 6.90 | 8.30 | 7.50 | 7.30 | Cc1cc(S(=O)(=O)Nc2ccc3c(c2)CCN(C)CC3)ccc1-c1ccc(Cl)cc1 | 
7.60 | 7.30 | 8.20 | 6.50 | 7.90 | Cc1ccc(-c2ccc(S(=O)(=O)Nc3ccc4c(c3)CCN(C)CC4)cc2)s1 | 
8.70 | 8.30 | 8.90 | 7.50 | 8.00 | CCCCc1ccc(S(=O)(=O)Nc2ccc3c(c2)CCN(C)CC3)cc1 | pIC50 [6]: 4.33; pIC50 [7]: 6.30; pIC50 [8]: 5.80; pIC50 [9]: 4.64; pIC50 [10]: 4.92
7.80 | 6.70 | 8.30 | 6.80 | 7.70 | CN1CCc2ccc(NS(=O)(=O)c3ccc(-c4ccc(Cl)cc4)cc3)cc2CC1 | pIC50 [6]: 4.35; pIC50 [7]: 4.80; pIC50 [8]: 5.82; pIC50 [9]: 4.60; pIC50 [10]: 4.24
7.80 | 6.10 | 7.60 | 6.30 | 7.00 | CN1CCc2ccc(NS(=O)(=O)c3ccc(-c4ccc(C#N)cc4)cc3)cc2CC1 | 
7.80 | 7.80 | 8.70 | 6.80 | 7.30 | CCCCc1ccc(S(=O)(=O)Nc2ccc3c(c2)CCNCC3)cc1 | 
7.70 | 8.30 | 8.30 | 6.70 | 8.00 | CCCCc1ccc(S(=O)(=O)Nc2ccc3c(c2)CN(C)C3)cc1 | 
8.80 | 7.70 | 7.80 | 7.80 | 7.10 | Cc1cc2c(cc1NS(=O)(=O)c1ccc(-c3ccc(Cl)cc3)cc1)CCN(C)CC2 | 

Second part, the molecule before the results:

Structure (SMILES) | pKi [1] | pKi [2] | pKi [3] | pKi [4] | pKi [5] | other results
Cc1noc(C)c1-c1ccc(S(=O)(=O)Nc2ccc3c(c2)CCN(C)CC3)cc1 | 7.80 | 5.90 | 8.00 | 7.00 | 6.40 | 
COc1cc2c(cc1NS(=O)(=O)c1ccc(-c3ccc(Cl)cc3)cc1)CCN(C)CC2 | 9.10 | 7.60 | 8.00 | 8.40 | 7.40 | 
CCCCc1ccc(S(=O)(=O)Nc2ccc3c(c2)CNC3)cc1 | 7.40 |  | 7.30 | 6.10 |  | 
CCCCc1ccc(S(=O)(=O)Nc2ccc3c(c2)CN(C)CC3)cc1 | 7.60 |  |  | 6.40 |  | 
CC(C)Oc1cc2c(cc1NS(=O)(=O)c1ccc(-c3ccc(Cl)cc3)cc1)CCN(C)CC2 | 9.10 | 7.80 | 7.50 | 8.20 | 7.40 | 
CC(C)Nc1cc2c(cc1NS(=O)(=O)c1ccc(-c3ccc(Cl)cc3)cc1)CCN(C)CC2 | 8.50 | 8.80 | 8.10 | 7.30 | 8.30 | pEC50 [11]: < 4.90; ED50 [12]: 20.6 mg/kg; pEC50 [13]: < 5.00; pEC50 [14]: < 4.60; Activity [15]: Not Active; pEC50 [16]: < 4.90; pIC50 [6]: 4.77; pIC50 [7]: 4.60; pIC50 [8]: 4.72; pIC50 [9]: 4.29; pIC50 [10]: 5.12; pEC50 [17]: < 5.00
CN1CCc2ccc(NS(=O)(=O)c3ccc(-c4ccc(F)c(Cl)c4)cc3)cc2CC1 | 8.40 | 7.30 | 8.10 | 7.30 | 7.50 | 
CN1CCc2cc(Br)c(NS(=O)(=O)c3ccc(-c4ccc(Cl)cc4)cc3)cc2CC1 | 8.30 |  | 7.30 | 7.20 | 6.90 | 
CN1CCc2cc(Cl)c(NS(=O)(=O)c3ccc(-c4ccc(Cl)cc4)cc3)cc2CC1 | 8.60 | 7.50 | 7.30 | 7.40 | 7.40 | 
CCCCc1ccc(S(=O)(=O)Nc2ccc3c(c2)CNCC3)cc1 | 7.90 and 8.00 | 7.90 | 7.60 | 6.10 and 6.00 | 7.50 | Log Ki [2]: -7.9; Log Ki [3]: -7.6; Log Ki [5]: -7.5
CN1CCc2ccc(NS(=O)(=O)c3ccc(-c4ccc(Cl)cc4)s3)cc2CC1 | 7.40 |  | 8.40 | 6.40 | 6.90 | 
CC(C)c1cc2c(cc1NS(=O)(=O)c1ccc(-c3ccc(Cl)cc3)cc1)CCN(C)CC2 | 8.40 | 8.30 | 7.90 | 7.00 | 7.80 | 
